IC50 data for 26 compounds are collected here from US9464044B2, “Compound having ability to inhibit 11Beta-HSD1 enzyme or pharmaceutically acceptable salt thereof, method for producing same, and pharmaceutical composition containing same as active ingredient” (AHN-GOOK PHARMACEUTICAL CO., LTD., priority 2012, dated 2016).

This assay deals with 11β-HSD1 (Homo sapiens (Human), UniProt P28845). Put plainly: 11β-HSD1 inhibiting activity, HTRF assay with human microsomal fractions. In kind it is biochemical. As to conditions: 160 nM cortisone, 200 μM NADPH, 2 h at 37° C. How it is done: The inhibiting activity of 11β-HSD1 derived from microsomal fractions was measured using the HTRF assay (62CO2PEB, Cisbio). […] Europium (Eu^3+) cryptate and XL665-conjugated cortisol were then added to each well and incubated for an additional 2 h at room temperature. The Cortisol concentration was calculated u sing a calibration curve. The IC50 values were calculated from dose response curves using GraphPad Prism software.
Sequence of 11β-HSD1 (P28845 whole entry): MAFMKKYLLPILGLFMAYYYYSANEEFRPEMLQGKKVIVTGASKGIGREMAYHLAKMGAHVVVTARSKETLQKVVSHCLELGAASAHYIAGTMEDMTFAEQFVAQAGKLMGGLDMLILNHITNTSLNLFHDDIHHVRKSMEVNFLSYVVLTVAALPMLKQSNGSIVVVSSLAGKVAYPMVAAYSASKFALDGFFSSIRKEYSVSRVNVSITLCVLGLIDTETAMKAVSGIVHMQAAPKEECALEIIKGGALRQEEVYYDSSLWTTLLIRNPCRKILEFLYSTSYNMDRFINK
On the technique in general: In TR-FRET formats the signal depends on donor and acceptor labels being close together.
The term IC50 denotes the concentration that gives 50% inhibition. A higher IC50 goes with lower potency. `NC(=O)C12CC3CC(C1)C(NC(=O)C1(CNS(=O)(=O)c4cc(Cl)c(Cl)cc4F)CC1)C(C3)C2` (centres unmarked) [Example 16, E-4-[1-((4,5-dichloro-2-fluoro-benzenesulfonylamino)methyl)cyclopropanecarboxamido]-adamantan-1-carboxylic acid amide]: the midpoint of inhibition, the IC50, lay at 5 nM. Then `Cn1ccc2cc(S(=O)(=O)NCC3(C(=O)NC4C5CC6CC4CC(C(N)=O)(C6)C5)CC3)ccc21` (centres unmarked) [Example 26, E-4-[1-((1-methyl-1H-indole-5-sulfonylamino)methyl)cyclopropanecarboxamido]-adamantan-1-carboxylic acid amide], with 1.2 nM; and `Cc1cc(S(=O)(=O)NC2(C(=O)NC3C4CC5CC3CC(C(N)=O)(C5)C4)CC2)c(F)cc1Cl` (centres unmarked) [Example 46, E-4-[1-(2-fluoro-4-chloro-5-methyl-benzenesulfonylamino)cyclopropanecarboxamido]-adamantan-1-carboxylic acid amide], with 34.7 nM; and `NC(=O)C12CC3CC(C1)C(NC(=O)c1cccc(NS(=O)(=O)c4ccco4)c1)C(C3)C2` (centres unmarked) [Example 103, E-4-[3-(furan-2-sulfonylamino)-benzamido]-adamantan-1-carboxylic acid amide], with 23.8 nM. Then `Cc1n[nH]c(C)c1S(=O)(=O)Nc1cccc(C(=O)NC2C3CC4CC2CC(C(N)=O)(C4)C3)c1` (centres unmarked) [Example 108, E-4-[3-(3,5-dimethyl-1H-pyrazole-4-sulfonylamino)-benzamido]-adamantan-1-carboxylic acid amide], with 51.2 nM.

Compound `NC(=O)C12CC3CC(C1)C(NC(=O)c1cccc(NS(=O)(=O)c4ccccc4C(F)(F)F)c1F)C(C3)C2` (centres unmarked) [Example 125, E-4-[2-fluoro-3-(2-(trifluoromethyl)benzenesulfonylamino)benzamido]adamantan-1-carboxylic acid amide] yielded an IC50 of 11.6 nM. Then `NC(=O)C12CC3CC(C1)C(NC(=O)C1(NS(=O)(=O)c4ccc(F)c(F)c4F)CC1)C(C3)C2` (centres unmarked) [Example 47, E-4-[1-(2,3,4-trifluoro-benzenesulfonylamino)cyclopropanecarboxamido]-adamantan-1-carboxylic acid amide], with 495 nM. Turning to `NC(=O)C12CC3CC(C1)C(NC(=O)c1cccc(NS(=O)(=O)c4ccc(C(F)(F)F)c(Cl)c4)c1)C(C3)C2` (centres unmarked) [Example 114, E-4-[3-(3-chloro-4-(trifluoromethyl)benzenesulfonylamino)benzamido]adamantan-1-carboxylic acid amide], half-maximal inhibition (IC50) was put at 30.7 nM. Then `CCN(CC1(C(=O)NC2C3CC4CC2CC(C(N)=O)(C4)C3)CC1)S(=O)(=O)c1ccccc1F` (centres unmarked) [Example 32, E-4-[1-((N-ethyl-fluoro-benzenesulfonylamino)methyl)cyclopropanecarboxamido]-adamantan-1-carboxylic acid amide], with 1.4 nM; and `NC(=O)C12CC3CC(C1)C(NC(=O)c1cccc(NS(=O)(=O)c4c(Cl)cc(Cl)cc4Cl)c1)C(C3)C2` (centres unmarked) [Example 117, E-4-[3-(2,4,6-trichloro-benzenesulfonylamino)-benzamido]-adamantan-1-carboxylic acid amide], with 5 nM. Then `Cn1nccc1S(=O)(=O)NC1(C(=O)NC2C3CC4CC2CC(C(N)=O)(C4)C3)CC1` (centres unmarked) [Example 58, E-4-[1-(1-methyl-1H-pyrazole-5-sulfonylamino)cyclopropanecarboxamido]-adamantan-1-carboxylic acid amide], with 17.3 nM. The result for `CN(c1cccc(C(=O)NC2C3CC4CC2CC(C(N)=O)(C4)C3)c1)S(=O)(=O)c1ccccc1C(F)(F)F` (centres unmarked) [Example 99, E-4-(3-[(2-trifluoromethyl-benzenesulfonyl)-methylamino]-benzamido)-adamantan-1-carboxylic acid amide] reads 1.9 nM; that for `NC(=O)C12CC3CC(C1)C(NC(=O)c1cccc(NS(=O)(=O)c4ccccc4C(F)(F)F)c1)C(C3)C2` (centres unmarked) [Example 115], 19.1 nM.

`NC(=O)CCC12CC3CC(C1)C(NC(=O)C1(CNS(=O)(=O)c4ccccc4F)CC1)C(C3)C2` (centres unmarked) [Example 34, E-N-(5-(3-amino-3-oxopropyl)adamantan-2-yl)-1-((2-fluoro-benzenesulfonylamino)methyl)cyclopropanecarboxamide] yielded an IC50 of 29.9 nM. Then `NC(=O)C12CC3CC(C1)C(NC(=O)C1(NC(=O)c4cccc(F)c4F)CC1)C(C3)C2` (centres unmarked) [Example 59], with 11.2 nM; and `NC(=O)C12CC3CC(C1)C(NC(=O)c1cccc(NS(=O)(=O)c4ccccc4Cl)c1)C(C3)C2` (centres unmarked) [Example 106], with 4.8 nM. Then `NC(=O)C12CC3CC(C1)C(NC(=O)C1(NS(=O)(=O)c4ccc(F)cc4F)CC1)C(C3)C2` (centres unmarked) [Example 44], with 79.1 nM; and `CC(C)(CNS(=O)(=O)c1ccccc1)C(=O)NC1C2CC3CC1CC(C(N)=O)(C3)C2` (centres unmarked) [Example 69, E-4-[3-(benzenesulfonylamino)-2,2-dimethylpropanamido]adamantan-1-carboxylic acid amide], with 28.6 nM. `NC(=O)C12CC3CC(C1)C(NC(=O)c1cccc(NS(=O)(=O)c4cc(F)cc(Cl)c4)c1)C(C3)C2` (centres unmarked) [Example 118, E-4-[3-(3-chloro-5-fluoro-benzenesulfonylamino)-benzamido]-adamantan-1-carboxylic acid amide] yielded a half-maximal inhibitory concentration (IC50) of 20.4 nM.

In turn, `NC(=O)C12CC3CC(C1)C(NC(=O)c1cccc(NS(=O)(=O)c4ccc(Br)cc4Cl)c1)C(C3)C2` (centres unmarked) [Example 116, E-4-[3-(2-chloro-4-bromo-benzenesulfonylamino)-benzamido]-adamantan-1-carboxylic acid amide] returned an IC50 of 14.5 nM.

For the compound `NC(=O)C12CC3CC(C1)C(NC(=O)c1ccccc1NS(=O)(=O)c1ccccc1F)C(C3)C2` (centres unmarked) [Example 92, E-4-[2-(2-fluoro-benzenesulfonylamino)-benzamido]-adamantan-1-carboxylic acid amide], 148 nM corresponded to half-maximal inhibition (IC50). Then `Cc1cccc(F)c1S(=O)(=O)N(C)CC1(C(=O)NC2C3CC4CC2CC(C(N)=O)(C4)C3)CC1` (centres unmarked) [Example 13, E-4-[1-((2-fluoro-N,6-dimethyl-benzenesulfonylamino)methyl)cyclopropanecarboxamido]-adamantan-1-carboxylic acid amide], with 2.8 nM. Then `NC(=O)C12CC3CC(C1)C(NC(=O)C1(CNS(=O)(=O)c4ccc(F)cc4C(F)(F)F)CC1)C(C3)C2` (centres unmarked) [Example 20, E-4-[1-((2-(trifluoromethyl)-4-fluoro-benzenesulfonylamino)methyl)cyclopropanecarboxamido]-adamantan-1-carboxylic acid amide], with 102 nM; and `CN(CC1(C(=O)NC23CC4CC(CC(C4)C2)C3)CC1)S(=O)(=O)c1ccccc1F` [Example 31, N-(adamantan-1-yl)-1-((2-fluoro-N-methylbenzenesulfonylamino)methyl)cyclopropanecarboxamido], with 1.2 nM; and `NC(=O)C12CC3CC(C1)C(NC(=O)c1cccc(NS(=O)(=O)c4ccccc4)c1)C(C3)C2` (centres unmarked) [Example 105], with 42.7 nM. The result for `Cc1cc(S(=O)(=O)NCC2(C(=O)NC3C4CC5CC3CC(C(N)=O)(C5)C4)CC2)c(Cl)cc1Cl` (centres unmarked) [Example 14, E-4-[1-((2,4-dichloro-5-methyl-benzenesulfonylamino)methyl)cyclopropanecarboxamido]-adamantan-1-carboxylic acid amide] reads 13.3 nM.
